In brackets after ≈: the same amount, converted by molar mass. Like-named read-outs stand apart in the source and are kept apart here.
Experiments:
E. faecium = test: MIC, broth microdilution; assay type: cell-based, Enterococcus faecium; details: for MIC: Enterococcus faecium; for susceptibility of E. faecium: result in words
Summary of the method: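 MIC by CLSI broth microdilution (M07-A8) in MH broth; E. aerogenes, K. pneumoniae and A. baumannii pre-grown in LB, E. faecium in BHI, at 37° C. Inoculum at initial OD600 0.03, incubated 18 hrs at 35° C., growth read as absorbance at 595 nm.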

[1] = system: S. aureus persister cells (stationary phase); test: Persister killing assay; assay type: cell-based, Staphylococcus aureus; details: for viability of MW2 persister cells, single agent: 4 μg/ml CD437 or CD1530 or 10 μg/ml gentamicin alone; for time to complete eradication of MW2 persisters, combination: 4 μg/ml retinoid plus 10 μg/ml gentamicin; for eradication of persisters formed by S. aureus strain VRS1 and 11 clinical S. aureus strains: 10×MIC, 4 h, result in words; for bactericidal concentration against MRSA persisters: MRSA MW2 persisters
Protocol: Persister killing assay. […] Persister cells of these 13 S. aureus strains were developed by growing cultures overnight to stationary phase at 37° C. at 225 rpm. The overnight cultures were washed three times with PBS and diluted to ˜10^7 CFU/ml with the same buffer, which is the same concentration as used in the killing kinetics assay described herein. 1 ml of the persister suspension containing appropriate concentrations of antibiotics was added to the wells of a 2 ml deep well assay block (Corning Costar 3960) and incubated at 37° C., with shaking at 225 rpm. At specific times, 50 μl samples were removed, serially diluted and spot-plated on TSA plates to enumerate the number of live cells. These experiments were conducted in triplicate.

[2] = system: primary human hepatocytes; test: Hepatotoxicity (WST-1); assay type: cell-based; details: at 32 μg/ml, 24 h
Protocol: Hepatotoxicity. Cryopreserved primary human hepatocytes were purchased from Cell Resource Core at Massachusetts General Hospital (Boston, Mass., USA). The hepatocytes were cultured in collagen sandwiched configuration in 24-well plates, as described previously (See, e.g., Dunn, J. C., et al. Hepatocyte function and extracellular matrix geometry: long-term culture in a sandwich configuration. FASEB J. 3, 174-177 (1989); Dunn, J. C., et al. Hepatocytes in collagen sandwich: evidence for transcriptional and translational regulation. J. Cell Biol. 116, 1043-1053 (1992); and Sharma, N. S. et al. Metabolic profiling based quantitative evaluation of hepatocellular metabolism in presence of adipocyte derived extracellular matrix. PLoS ONE 6, e20137 (2011)). Briefly, 0.4×10^6 live cells were seeded in 24-well plates coated with rat tail collagen type I. In order for cells to attach onto collagen gel, the 24-well plates were incubated in a humidified 5% CO2 incubator at 37° C. for 4 hours. The cells were washed and then cultured in 0.5 ml standard hepatocyte culture medium consisting of pre-warmed DMEM media supplemented with 10% FBS, 0.5 U/ml insulin, 14 ng/ml glucagon, 20 ng/ml EGF, 7.5 μg/ml hydrocortisone and 200 U/ml penicillin-streptomycin. The cell cultures were incubated in a humidified 5% CO2 incubator at 37° C. At 24 h after seeding, a top layer of collagen gel was deposited on the hepatocytes attached to the bottom collagen layer and incubated for another 24 h, then the hepatocytes were treated with a range of concentrations of retinoids for 24 h. […] WST-1 reduction was measured at absorbance 450 nm. The percent […] relative to that of the no-treatment control was calculated. […]
0.4×10^6 primary human hepatocytes cultured in a collagen gel sandwich system were treated with a range of concentration of the synthetic retinoids for 24 h. Cell viability was calculated based on the absorbance readings at 450 nm at 4 h after adding WST-1 using the following equation: % viability=(Abssample−Absblank)/(Absnon-treated−Absblank)×100. […]

S. aureus = test: Minimal inhibitory concentration (MIC), broth microdilution; assay type: cell-based, Staphylococcus aureus; details: Staphylococcus aureus
Summary of the method: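 MIC values against methicillin-resistant Staphylococcus aureus were determined by standard broth microdilution following Clinical and Laboratory Standards Institute guidance (CLSI document M07-A8). Each well held 100 μl of test compound plus bacterial cells in MH broth, with the starting OD600 set to 0.03. Plates were incubated 18 hrs at 35° C. and absorbance was then read at 595 nm.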

[3] = E. faecium D24, read-out: Minimum inhibitory concentration
[4] = E. faecium D25, read-out: Minimum inhibitory concentration
[5] = E. faecium D29, read-out: Minimum inhibitory concentration
[6] = E. faecium WB213, read-out: Minimum inhibitory concentration
[7] = MRSA, 28 clinical MRSA isolates, 28/28 isolates, read-out: MIC
[8] = S. aureus BF1, read-out: Minimum inhibitory concentration
[9] = S. aureus BF2, read-out: Minimum inhibitory concentration
[10] = S. aureus BF3, read-out: Minimum inhibitory concentration
[11] = S. aureus BF4, read-out: Minimum inhibitory concentration
[12] = S. aureus BF5, read-out: Minimum inhibitory concentration
[13] = S. aureus BF6, read-out: Minimum inhibitory concentration
[14] = S. aureus BF7, read-out: Minimum inhibitory concentration
[15] = S. aureus BF8, read-out: Minimum inhibitory concentration
[16] = S. aureus BF9, read-out: Minimum inhibitory concentration
[17] = S. aureus BF10, read-out: Minimum inhibitory concentration
[18] = S. aureus BF11, read-out: Minimum inhibitory concentration
[19] = S. aureus JE2 (wild-type), read-out: MIC
[20] = S. aureus MW2, read-out: Minimum inhibitory concentration
[21] = S. aureus NE896 (JE2 yjbH::ϕNΣ)
[22] = S. aureus NE1645 (JE2 manA::ϕNΣ)
[23] = S. aureus NE1756 (JE2 graS::ϕNΣ)
[24] = S. aureus VRS1, read-out: Minimum inhibitory concentration
[25] = methicillin resistant S. aureus (MRSA) strain MW2, read-out: MIC

## O=C(O)c1ccc2cc(-c3ccc(O)c(C45CC6CC(CC(C6)C4)C5)c3)ccc2c1 [CD437, 6-(4-hydroxy-3-tricyclo[3.3.1.13,7]dec-1-ylphenyl)-2-naphthalenecarboxylic acid]
E. faecium; [3]
  MIC: 1 µg/mL (≈ 2.51 µM)
E. faecium; [4]
  MIC: 1 µg/mL (≈ 2.51 µM)
E. faecium; [5]
  MIC: 1 µg/mL (≈ 2.51 µM)
E. faecium; [6]
  MIC: 1 µg/mL (≈ 2.51 µM)
E. faecium
  susceptibility of E. faecium: susceptible
[1]
  viability of MW2 persister cells, single agent: did not significantly affect
  time to complete eradication of MW2 persisters, combination: ≤ 3 h
  eradication of persisters formed by S. aureus strain VRS1 and 11 clinical S. aureus strains: annihilated
  bactericidal concentration against MRSA persisters: 8 µg/mL
[2]
  toxicity to primary human hepatocytes: did not cause significant toxicity
S. aureus; [7]
  MIC: ≤ 2 µg/mL
S. aureus; [8]
  MIC: 2 µg/mL (≈ 5.02 µM)
S. aureus; [9]
  MIC: 1 µg/mL (≈ 2.51 µM)
S. aureus; [10]
  MIC: 1 µg/mL (≈ 2.51 µM)
S. aureus; [11]
  MIC: 2 µg/mL (≈ 5.02 µM)
S. aureus; [12]
  MIC: 1 µg/mL (≈ 2.51 µM)
S. aureus; [13]
  MIC: 1 µg/mL (≈ 2.51 µM)
S. aureus; [14]
  MIC: 1 µg/mL (≈ 2.51 µM)
S. aureus; [15]
  MIC: 1 µg/mL (≈ 2.51 µM)
S. aureus; [16]
  MIC: 1 µg/mL (≈ 2.51 µM)
S. aureus; [17]
  MIC: 1 µg/mL (≈ 2.51 µM)
S. aureus; [18]
  MIC: 1 µg/mL (≈ 2.51 µM)
S. aureus; [19]
  MIC: 1.5 µg/mL (≈ 3.76 µM)
S. aureus; [20]
  MIC: 1 µg/mL (≈ 2.51 µM)
S. aureus; [21]
  MIC: 2 µg/mL (≈ 5.02 µM)
S. aureus; [22]
  MIC: 3 µg/mL (≈ 7.53 µM)
S. aureus; [23]
  MIC: 2 µg/mL (≈ 5.02 µM)
S. aureus; [24]
  MIC: 1 µg/mL (≈ 2.51 µM)
S. aureus; [25]
  MIC: 1 µg/mL (≈ 2.51 µM)

## O=C(O)c1ccc(-c2ccc3cc(O)c(C45CC6CC(CC(C6)C4)C5)cc3c2)cc1 [CD1530, 4-(6-hydroxy-7-tricyclo[3.3.1.13,7]dec-1-yl-2-naphthalenyl)-benzoic acid]
E. faecium; E. faecium C68, read-out: Minimum inhibitory concentration
  MIC: 2 µg/mL (≈ 5.02 µM)
E. faecium; E. faecium D14, read-out: Minimum inhibitory concentration
  MIC: 2 µg/mL (≈ 5.02 µM)
E. faecium; [3]
  MIC: 1 µg/mL (≈ 2.51 µM)
E. faecium; [4]
  MIC: 1 µg/mL (≈ 2.51 µM)
E. faecium; [5]
  MIC: 1 µg/mL (≈ 2.51 µM)
E. faecium; E. faecium E007, read-out: Minimum inhibitory concentration
  MIC: 2 µg/mL (≈ 5.02 µM)
E. faecium; [6]
  MIC: 1 µg/mL (≈ 2.51 µM)
E. faecium; E. faecium WC176, read-out: Minimum inhibitory concentration
  MIC: 2 µg/mL (≈ 5.02 µM)
E. faecium; E. faecium, (range given for E. faecium and E. faecalis), read-out: MIC
  MIC: 2 to 4 µg/mL (≈ 5.02 to 10 µM)
E. faecium
  susceptibility of E. faecium: susceptible
[1]
  viability of MW2 persister cells, single agent: did not significantly affect
  time to complete eradication of MW2 persisters, combination: ≤ 4 h
  eradication of persisters formed by S. aureus strain VRS1 and 11 clinical S. aureus strains: annihilated
  bactericidal concentration against MRSA persisters: 8 µg/mL
[2]
  toxicity to primary human hepatocytes: did not cause significant toxicity
S. aureus; [7]
  MIC: ≤ 2 µg/mL
S. aureus; [8]
  MIC: 2 µg/mL (≈ 5.02 µM)
S. aureus; [9]
  MIC: 1 µg/mL (≈ 2.51 µM)
S. aureus; [10]
  MIC: 1 µg/mL (≈ 2.51 µM)
S. aureus; [11]
  MIC: 1 µg/mL (≈ 2.51 µM)
S. aureus; [12]
  MIC: 1 µg/mL (≈ 2.51 µM)
S. aureus; [13]
  MIC: 1 µg/mL (≈ 2.51 µM)
S. aureus; [14]
  MIC: 1 µg/mL (≈ 2.51 µM)
S. aureus; [15]
  MIC: 1 µg/mL (≈ 2.51 µM)
S. aureus; [16]
  MIC: 2 µg/mL (≈ 5.02 µM)
S. aureus; [17]
  MIC: 1 µg/mL (≈ 2.51 µM)
S. aureus; [18]
  MIC: 1 µg/mL (≈ 2.51 µM)
S. aureus; [19]
  MIC: 1.5 µg/mL (≈ 3.76 µM)
S. aureus; [20]
  MIC: 1 µg/mL (≈ 2.51 µM)
S. aureus; S. aureus MW2 mutant SP1-8 (graS)
  MIC: 1.5 µg/mL (≈ 3.76 µM)
S. aureus; S. aureus MW2 mutant SP1-48 (graS, manA)
  MIC: 2 µg/mL (≈ 5.02 µM)
S. aureus; S. aureus MW2 mutant SP1-74 (graS, manA, MW2474)
  MIC: 2 µg/mL (≈ 5.02 µM)
S. aureus; S. aureus MW2 mutant SP1-100 (graS, manA, MW2474)
  MIC: 2 µg/mL (≈ 5.02 µM)
S. aureus; S. aureus MW2 mutant SP2-13 (yjbH)
  MIC: 1.5 µg/mL (≈ 3.76 µM)
S. aureus; S. aureus MW2 mutant SP2-52 (yjbH, dltB)
  MIC: 1.5 µg/mL (≈ 3.76 µM)
S. aureus; S. aureus MW2 mutant SP2-59 (yjbH, dltB, manA)
  MIC: 2 µg/mL (≈ 5.02 µM)
S. aureus; S. aureus MW2 mutant SP2-65 (yjbH, dltB, manA, MW1685)
  MIC: 2 µg/mL (≈ 5.02 µM)
S. aureus; S. aureus MW2 mutant SP2-100 (yjbH dltB, manA, MW1685)
  MIC: 2 µg/mL (≈ 5.02 µM)
S. aureus; S. aureus MW2 serial passage culture SP1-1 (no mutated gene)
  MIC: 1 µg/mL (≈ 2.51 µM)
S. aureus; S. aureus MW2 serial passage culture SP2-1 (no mutated gene)
  MIC: 1 µg/mL (≈ 2.51 µM)
S. aureus; [21]
  MIC: 2 µg/mL (≈ 5.02 µM)
S. aureus; [22]
  MIC: 3 µg/mL (≈ 7.53 µM)
S. aureus; [23]
  MIC: 2 µg/mL (≈ 5.02 µM)
S. aureus; [24]
  MIC: 1 µg/mL (≈ 2.51 µM)
S. aureus; [25]
  MIC: 1 µg/mL (≈ 2.51 µM)

Source: patent US11707442B2, “Antibacterial and antifungal compounds” (The General Hospital Corporation, priority 2015, dated 2023)
